Here are results for nine compounds from patent US8088791B2, “Antibacterial agents” (Biots Scientific Management Pty Ltd, priority 2006, dated 2012).

In brackets after ≈: the same amount, converted by molar mass. Like-named read-outs stand apart in the source and are kept apart here. Some results are limits rather than exact numbers.

For one data set, the system named is Bacillus subtilis 168CA. The experiment in a line: Minimum Inhibitory Concentration (MIC) testing, broth microdilution, Bacillus subtilis. The format is cell-based. The following applies: Bacillus subtilis 168CA; read-out: Bacillus subtilis MICs Activity. A digest of the protocol: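 MICs were scored A (≦8 μg/ml), B (16–64 μg/ml) or C (>64 μg/ml), read as the lowest concentration preventing visible growth by eye and spectrophotometry. Plates incubated overnight (16–20 h) at 37 °C, inoculum OD 0.09 diluted 1:100 in 2× broth, per NCCLS guidelines.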
In general terms: In broth dilution the organism is exposed to a series of concentrations in liquid medium.

Data set [1] deals with Staphylococcus aureus ATCC29213. As to the kind of experiment: Minimum Inhibitory Concentration (MIC) testing, broth microdilution, Staphylococcus aureus. The note with it: Staphylococcus aureus ATCC29213; read-out: Staphylococcus aureus MICs Activity. The data set is classed as cell-based. The essentials: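 Broth microdilution per NCCLS M7-A5 in Mueller Hinton broth, with compound in 1.6% DMSO and inoculum at OD 0.09 diluted 1:100. Plates incubated 16–20 h at 37°C. MIC is the lowest concentration with no visible growth; scored A ≤8, B 16–64, C >64 μg/ml.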

In data set [2] the test system is staphylococcal clinical isolates. The experiment in a line: Minimum Inhibitory Concentration (MIC) testing, broth microdilution, staphylococcal clinical isolates. The format is cell-based. The following applies: for MIC: read-out: MIC Activity against clinical isolate. On the procedure:
(§1) Compounds of this invention were tested for antimicrobial activity by susceptibility testing in liquid media. MICs for compounds against each strain were determined by a broth microdilution method according to the National Committee for Clinical Laboratory Standards (NCCLS) guidelines. (NCCLS. 2000. Methods for dilution antimicrobial susceptibility tests for bacteria that grow aerobically—fifth edition. Approved standard M7-A5. NCCLS, Wayne, Pa.)
(§2) Briefly, test compounds are prepared in 100 μl of 1.6% DMSO solution in multiwell plates. Several bacterial colonies from a freshly streaked plate are transferred to an appropriate rich broth, such as Mueller Hinton. The cell suspension is adjusted to an optical density of 0.09 and further diluted 1:100 with warm 2× broth. This cell suspension is dispensed into the wells containing compound solution so that the final volume is 200 μl. The plates are incubated overnight (16-20 hours) at 37° C. and turbidity is scored by eye and quantified spectrophotometrically. The MIC is defined as the lowest concentration inhibiting visible growth.
Some of the Examples were also tested for activity against staphylococcal clinical isolates. […] Activities were again scored as ‘A’ if the MIC was ≦8 micrograms/ml, ‘B’ if the MIC was 16 to 64 micrograms/ml and ‘C’ if the MIC was greater than 64 micrograms/ml.

Data set [3] has as its system various bacterial species. The experiment in a line: Minimum Inhibitory Concentration (MIC) testing, broth microdilution, other bacterial species. The format is cell-based. On the procedure: as §1, §2
Some of the Examples were also tested for activity against other bacterial species. […] Activities were again scored as ‘A’ if the MIC was ≦8 micrograms/ml, ‘B’ if the MIC was 16 to 64 micrograms/ml and ‘C’ if the MIC was greater than 64 micrograms/ml.

[4] abbreviates: S. aureus No. 753, Oxacillin S, Hospital.
[5] abbreviates: S. aureus No. 757, Oxacillin R, Tet-R, MI-R, Hospital (tetM).
Setting [6] is: S. aureus No. 1134, Oxacillin S, Hospital.
Setting [7] is: S. aureus No. 1135, Oxacillin R, Van-S, LZD-S, Hospital.
[8] abbreviates: S. aureus No. 1651, Oxacillin R, Van-S, LZD-R, Hospital (G2576T, G).
Setting [9] is: S. aureus No. 1652, Oxacillin R, Van-S, LZD-R, Hospital (T2500T, A).
Setting [10] is: S. aureus No. 1662, Oxacillin S, Hospital.
Where [11] appears, read: S. aureus No. 1725, Oxacillin R, Van-S, LZD-R, Hospital (G2576T).
Setting [12] is: S. aureus No. 1729, Oxacillin R, Tet-R, MI-R, Hospital.
Setting [13] is: S. aureus No. 2011, Oxacillin R, Tet-R, MI-S, Hospital (tetK).
Setting [14] is: S. aureus No. 2012, Oxacillin R, Van-I, LZD-S, Hospital.
Setting [15] is: S. aureus No. 2018, Oxacillin R, Van-I, LZD-S, Hospital.
The mark [16] stands for this setting: S. aureus No. 2142, Oxacillin R, CC-S, SXT-S, Community.
Setting [17] is: S. aureus No. 2143, Oxacillin R, Rif-R, Community.
[18] abbreviates: S. aureus No. 2147, Oxacillin R, CC-S, SXT-S, Community.
Where [19] appears, read: S. aureus No. 2149, Oxacillin R, CC-R (iMLS), SXT-S, Community.
Where [20] appears, read: S. aureus No. 2150, Oxacillin R, CC-R, SXT-S, Community.
[21] abbreviates: S. aureus No. 2158, Oxacillin R, CC-R, Doxy-I, Community.
[22] abbreviates: S. aureus No. 2175, Oxacillin R, TMP-R, Community.
[23] abbreviates: S. epidermidis No. 831, Oxacillin R.
[24] abbreviates: S. epidermidis No. 1139, Oxacillin S.
Setting [25] is: S. epidermidis No. 1142, Oxacillin R.
Where [26] appears, read: S. epidermidis No. 1144, Oxacillin R.
[27] abbreviates: Staphylococcus aureus, ATCC29213, S. aureus No. 0100, Oxacillin S, ATCC 29213.
[28] abbreviates: Staphylococcus aureus, S. aureus No. 1015, Oxacillin R, Van-S, LZD-S, Hospital.
Setting [29] is: Staphylococcus epidermidis, S. epidermidis No. 835, Oxacillin S.
The mark [30] stands for this setting: Bacillus cereus, ATCC14579, read-out: MIC Activity Bacillus cereus ATCC 14579.
The mark [31] stands for this setting: Staphylococcus saprophyticus, ATCC15305, read-out: MIC Activity Staphylococcus saprophyticus ATCC 15305.

What is called melting point is the temperature of the solid-liquid transition. As to `CCCCCCOc1c(F)cc(F)c(C(N)=O)c1F` [Example 79, 2,4,6-Trifluoro-3-(hexyloxy)benzenecarboxamide], the melting point lay within 89 to 90 °C. Moreover, the MIC in the data set with Bacillus subtilis 168CA was 16 to 64 µg/mL (≈ 58.1 to 232 µM). The MIC in data set [1] is 16 to 64 µg/mL (≈ 58.1 to 232 µM).
In turn, `CCCc1ccc2nc(COc3ccc(F)c(C(N)=O)c3F)sc2c1` [Example 231, 2,6-Difluoro-3-[(6-propyl-1,3-benzothiazol-2-yl)methoxy]benzenecarboxamide] displayed a melting point of 244 to 246 °C. In the data set on Bacillus subtilis 168CA, the MIC is under 8 µg/mL. The MIC in data set [1] was under 8 µg/mL.
On to `N#CCOc1ccc(F)c(C(N)=O)c1F` [Example 225, 3-(Cyanomethoxy)-2,6-difluorobenzenecarboxamide], for which the melting point lay in the range of 122 to 123 °C. Moreover, the MIC with Bacillus subtilis 168CA is over 64 µg/mL. Moreover, the MIC in data set [1] is over 64 µg/mL.
The compound `NC(=O)c1c(F)ccc(OCc2ccc3sccc3c2)c1F` [Example 201, 3-(1-Benzothiophen-5-ylmethoxy)-2,6-difluorobenzenecarboxamide] came in with a melting point of 146 to 148 °C. For the same compound, the MIC with Bacillus subtilis 168CA is under 8 µg/mL. Also, the MIC in data set [1] was in the range of 16 to 64 µg/mL (≈ 50.1 to 200 µM).
For the compound `Cc1ccc(S(=O)(=O)OCCCCCCCCCOc2cccc(C(N)=O)c2)cc1` [Example 92, 9-[3-(Aminocarbonyl)phenoxy]nonyl 4-methylbenzenesulfonate], the melting point was 78 to 80 °C. For the same compound, the MIC in the data set on Bacillus subtilis 168CA is under 8 µg/mL.
Take `NC(=O)c1c(F)ccc(OCc2nc3cc(C(F)(F)F)ccc3s2)c1F` [Example 217, 2,6-Difluoro-3-[5-(trifluoromethyl)-1,3-benzothiazol-2-yl]methoxybenzenecarboxamide]: the MIC (in the data set with Bacillus subtilis 168CA; in data set [2] (setting [27]); in data set [2] (setting [28]); in data set [2] (setting [29]); in data set [1]; in data set [3] (setting [30])) was under 8 µg/mL each time. Further, the MIC in data set [3] (Staphylococcus epidermidis, ATCC12228, read-out: MIC Activity Staphylococcus epidermidis ATCC 12228) is under 8 µg/mL; in data set [3] (setting [31]), under 8 µg/mL. The “MIC Activity against clinical isolate” value in data set [2] (setting [4]), in data set [2] (setting [5]), in data set [2] (setting [6]), in data set [2] (setting [7]), in data set [2] (setting [8]) and in data set [2] (setting [9]) was “A (‘A’ if the MIC was ≦8 micrograms/ml)” throughout. For the same compound, the “MIC Activity against clinical isolate” value in data set [2] (setting [10]), in data set [2] (setting [11]), in data set [2] (setting [12]), in data set [2] (setting [13]), in data set [2] (setting [14]) and in data set [2] (setting [15]) was “A (‘A’ if the MIC was ≦8 micrograms/ml)” in each case. Also, the “MIC Activity against clinical isolate” value in data set [2] (setting [16]), in data set [2] (setting [17]), in data set [2] (setting [18]), in data set [2] (setting [19]), in data set [2] (setting [20]) and in data set [2] (setting [21]) was “A (‘A’ if the MIC was ≦8 micrograms/ml)” throughout. The “MIC Activity against clinical isolate” value in data set [2] (setting [22]), in data set [2] (setting [23]), in data set [2] (setting [24]), in data set [2] (setting [25]) and in data set [2] (setting [26]) was “A (‘A’ if the MIC was ≦8 micrograms/ml)” each time.
The compound `Cc1cc(COc2ccc(F)c(C(N)=O)c2F)ccn1` [Example 198, 2,6-Difluoro-3-[(2-methyl-4-pyridinyl)methoxy]benzenecarboxamide] had a melting point of 185 to 186 °C. Moreover, the MIC in the data set with Bacillus subtilis 168CA lay within 16 to 64 µg/mL (≈ 57.5 to 230 µM).
For `Cc1ccc(-c2nc(COc3ccc(F)c(C(N)=O)c3F)cs2)cc1` [Example 236, 2,6-Difluoro-3-[2-(4-methylphenyl)-1,3-thiazol-4-yl]methoxybenzenecarboxamide], the MIC (in the data set with Bacillus subtilis 168CA; in data set [2] (setting [27]); in data set [2] (setting [28]); in data set [2] (setting [29]); in data set [1]; in data set [3] (setting [30])) was under 8 µg/mL in each case. The MIC in data set [3] (setting [31]) is under 8 µg/mL. The “MIC Activity against clinical isolate” value in data set [2] (setting [4]), in data set [2] (setting [5]), in data set [2] (setting [6]), in data set [2] (setting [7]), in data set [2] (setting [8]) and in data set [2] (setting [9]) was “A (‘A’ if the MIC was ≦8 micrograms/ml)” in each case. The “MIC Activity against clinical isolate” value in data set [2] (setting [10]), in data set [2] (setting [11]), in data set [2] (setting [12]), in data set [2] (setting [13]), in data set [2] (setting [14]) and in data set [2] (setting [15]) was “A (‘A’ if the MIC was ≦8 micrograms/ml)” each time. Besides, the “MIC Activity against clinical isolate” value in data set [2] (setting [16]), in data set [2] (setting [17]), in data set [2] (setting [18]), in data set [2] (setting [19]), in data set [2] (setting [20]) and in data set [2] (setting [21]) was “A (‘A’ if the MIC was ≦8 micrograms/ml)” in each case. Further, the “MIC Activity against clinical isolate” value in data set [2] (setting [22]), in data set [2] (setting [23]), in data set [2] (setting [24]), in data set [2] (setting [25]) and in data set [2] (setting [26]) was “A (‘A’ if the MIC was ≦8 micrograms/ml)” throughout.
In turn, `NC(=O)c1cccc(OCCCCCCCc2ccsc2)c1` [Example 63, 3-{[7-(3-Thienyl)heptyl]oxy}benzenecarboxamide] registered a melting point of 97 to 100 °C. The MIC with Bacillus subtilis 168CA is under 8 µg/mL.
